{
  "source": "patent US11279737B2",
  "about": "“Antimicrobial peptide variants and uses thereof” (ANTINBIO, INC., priority 2019, dated 2022)",
  "key": {"human erythrocytes": {"tested_on": "human erythrocytes", "assay": "hemolytic assay", "type": "cell-based", "details": "peptide 0.5-500 μg/ml, 37° C., 60 minutes, FIG. 2", "description": "For the hemolysis assays, human erythrocytes were obtained from healthy donors, washed 3 times using sterilized PBS and re-suspended to a concentration of 2% (v/v) with PBS. The hegrisin, HCN2016-01 peptide, and plectasin (control) were diluted to concentrations of 500, 250, 125, 62.5, 32, 16, 8, 4, 2, 1, and 0.5 μg/ml. A 100 μL solution of each peptide and a 100 μL suspension of red blood cells were mixed and added to the wells of a 96-well plate. PBS was used as negative control and Triton X-100 was used as a positive control.\nThe samples were incubated at 37° C. for 60 minutes and gently stirred during the incubation period. Then, the samples were centrifuged at 2000 rpm for 5 minutes. A total of 100 μL of the supernatant in each well was transferred to a new 96-well plate and absorbance was measured at 490 nm using a microplate reader (Molecular Devices, USA).\nFor hemolysis assays, human erythrocytes were obtained from healthy donors, washed 3 times using sterilized PBS, and re-suspended to a concentration of 2% (v/v) with PBS. The HCN2016-01 peptide (SEQ ID NO: 2) and plectasin (control) were diluted to concentrations of 500; 250; 125; 62.5; 32; 16; 8; 4; 2; 1; and 0.5 μg/ml. A 100 μL of each peptide solution was mixed with a 100 μL solution of a red blood cell suspension and added to separate wells of a 96-well plate. PBS was used as negative control and Triton X-100 was used as a positive control. The samples were incubated at 37° C. for 60 minutes and gently stirred during the incubation period. The samples were then centrifuged at 2000 rpm for 5 minutes. A total of 100 μL of the supernatant in each well was transferred to a new 96-well plate and absorbance was measured at 490 nm using a microplate reader (Molecular Devices, USA)."}, "S. aureus ATCC 6538 [1]": {"tested_on": "S. aureus ATCC 6538"}, "[2]": {"tested_on": "S. aureus MRSA ATCC 43300"}, "[3]": {"tested_on": "S. epidermidis ATCC 14990"}, "[4]": {"tested_on": "C. perfringens ATCC 13124"}, "S. aureus ATCC 6538 [5]": {"tested_on": "S. aureus ATCC 6538", "assay": "inhibition zone assay", "details": "10 μg peptide per hole, 37° C., 16-18 hours"}},
  "note": "Where a SMILES comes first, the peptide text is derived from it. Bridges are numbered along the chain shown (N, C = ends).",
  "data": [
    {"compound": "CC[C@H](C)[C@@H]1NC(=O)CNC(=O)CNC(=O)[C@H](Cc2ccccc2)NC(=O)[C@H](CCCCN)NC(=O)[C@@H]2CSSC[C@H](NC(=O)[C@H](CO)NC(=O)[C@H](Cc3c[nH]c4ccccc34)NC(=O)CN)C(=O)N[C@@H](CC(N)=O)C(=O)N[C@@H]([C@@H](C)CC)C(=O)N[C@@H](Cc3c[nH]c4ccccc34)C(=O)N[C@@H](CC(N)=O)C(=O)NCC(=O)N[C@@H](CC(N)=O)C(=O)N[C@@H](CC(=O)O)C(=O)N[C@@H](CCC(=O)O)C(=O)N3CCC[C@H]3C(=O)N[C@H]3CSSC[C@H](NC1=O)C(=O)N[C@@H](CCCCN)C(=O)N[C@H](C(=O)N[C@@H](Cc1ccc(O)cc1)C(=O)O)CSSC[C@H](NC(=O)[C@H](Cc1c[nH]cn1)NC(=O)[C@H](CCC(N)=O)NC(=O)[C@H](Cc1c[nH]cn1)NC3=O)C(=O)N[C@@H](CCCCN)C(=O)N[C@@H](CO)C(=O)N[C@@H]([C@@H](C)CC)C(=O)N[C@@H](CCCNC(=N)N)C(=O)NCC(=O)N[C@@H](Cc1ccc(O)cc1)C(=O)N[C@@H](CCCNC(=N)N)C(=O)NCC(=O)NCC(=O)N[C@@H](Cc1ccc(O)cc1)C(=O)N2", "note": "[HCN2016-01] (H-GWSCNIWNGNDEPCHQHCKSIRGYRGGYCKFGGICKCY-OH; disulfide 4-29, 14-35, 18-37 (inferred); N-terminus and C-terminus assumed)", "values": [
      {"measurement": "cell lysis (hemolysis) of human erythrocytes", "setting": "human erythrocytes", "result": "no significant lysis"},
      {"measurement": "Minimal inhibitory concentration (MIC)", "setting": "S. aureus ATCC 6538 [1]; ATCC 6538", "result": 0.30, "unit": "µg/mL"},
      {"measurement": "activity against bacteria (in words)", "setting": "S. aureus ATCC 6538 [1]; S. aureus ATCC 6538", "result": "strong activity"},
      {"measurement": "antimicrobial activity compared to wild type hegrisin (in words)", "setting": "S. aureus ATCC 6538 [1]; S. aureus ATCC 6538, lower MIC values", "result": "improved antimicrobial activity"},
      {"measurement": "Minimal inhibitory concentration (MIC)", "setting": "[2]; ATCC 43300", "result": 0.73, "unit": "µg/mL"},
      {"measurement": "activity against bacteria (in words)", "setting": "[2]; S. aureus MRSA ATCC 43300", "result": "strong activity"},
      {"measurement": "antimicrobial activity compared to wild type hegrisin (in words)", "setting": "[2]; S. aureus MRSA ATCC 43300", "result": "improved antimicrobial activity"},
      {"measurement": "Minimal inhibitory concentration (MIC)", "setting": "[3]; ATCC 14990", "result": 0.31, "unit": "µg/mL"},
      {"measurement": "activity against bacteria (in words)", "setting": "[3]; S. epidermidis ATCC 14990", "result": "strong activity"},
      {"measurement": "antimicrobial activity compared to wild type hegrisin (in words)", "setting": "[3]; S. epidermidis ATCC 14990", "result": "improved antimicrobial activity"},
      {"measurement": "Minimal inhibitory concentration (MIC)", "setting": "B. subtilis ATCC 6633; ATCC 6633", "result": 0.50, "unit": "µg/mL"},
      {"measurement": "activity against bacteria (in words)", "setting": "B. subtilis ATCC 6633; B. subtilis ATCC 6633", "result": "strong activity"},
      {"measurement": "Minimal inhibitory concentration (MIC)", "setting": "L. lactis ATCC 19256", "result": 0.50, "unit": "µg/mL"},
      {"measurement": "Minimal inhibitory concentration (MIC)", "setting": "L. rhamnosus ATCC 14957", "result": 32.0, "unit": "µg/mL"},
      {"measurement": "Minimal inhibitory concentration (MIC)", "setting": "L. plantarum ATCC 14917", "result": 16.0, "unit": "µg/mL"},
      {"measurement": "Minimal inhibitory concentration (MIC)", "setting": "L. delbrueckii ATCC 9649; ATCC 9649", "result": 8.0, "unit": "µg/mL"},
      {"measurement": "activity against bacteria (in words)", "setting": "L. delbrueckii ATCC 9649; L. delbrueckii ATCC 9649", "result": "strong activity"},
      {"measurement": "Minimal inhibitory concentration (MIC)", "setting": "S. salivarius ATCC 19258; ATCC 19258", "result": 4.0, "unit": "µg/mL"},
      {"measurement": "activity against bacteria (in words)", "setting": "S. salivarius ATCC 19258; S. salivarius ATCC 19258", "result": "strong activity"},
      {"measurement": "Minimal inhibitory concentration (MIC)", "setting": "B. longum ATCC 15707; ATCC 15707", "result": 8.0, "unit": "µg/mL"},
      {"measurement": "activity against bacteria (in words)", "setting": "B. longum ATCC 15707; B. longum ATCC 15707", "result": "strong activity"},
      {"measurement": "Minimal inhibitory concentration (MIC)", "setting": "C. acnes ATCC 11827; ATCC 11827", "result": 8.0, "unit": "µg/mL"},
      {"measurement": "activity against bacteria (in words)", "setting": "C. acnes ATCC 11827; C. acnes ATCC 11827", "result": "strong activity"},
      {"measurement": "activity against bacteria (in words)", "setting": "[4]", "result": "strong activity"},
      {"measurement": "Minimal inhibitory concentration (MIC)", "setting": "[4]; ATCC 13124", "result": 6.81, "unit": "µg/mL"},
      {"measurement": "Minimal inhibitory concentration (MIC)", "setting": "L. casei ATCC 393", "result": ">500.0", "unit": "µg/mL"},
      {"measurement": "Minimal inhibitory concentration (MIC)", "setting": "E. coli ATCC 25922; ATCC 25922", "result": ">500.0", "unit": "µg/mL"},
      {"measurement": "activity against bacteria (in words)", "setting": "E. coli ATCC 25922; Gram negative bacteria E. coli", "result": "minimal or no activity"},
      {"measurement": "Activity (antimicrobial activity relative to unmodified hegrisin, zones of growth inhibition)", "setting": "S. aureus ATCC 6538 [5]", "result": 2}
    ]}
  ]
}
